Reference: patent US20120010075A1 (priority 2009, published 2012)
Where a name gives a salt, the structure may show the parent alone. Read-outs that look alike come from different tables or passages of the source.

What was measured:
Phytophthora infestans = assay type: in vivo, Phytophthora infestans on tomato; conditions: applied 24 h before inoculation, assessed 7 days after inoculation
[1] = test system: Leptosphaeria nodorum (LEPTNO); test: In vitro fungitoxicity of hydrazones with and without copper towards Leptosphaeria nodorum (Example 26); assay type: cell-based; conditions: 72 h at 25° C.; for inhibition of growth at 0.05 µg/mL: Parastagonospora nodorum, 72 h, copper-minus medium, read-out: LEPTNO % Inhn. Minus Copper Observed
[2] = hydrazone 50 ppm with 50 μM CuCl2.2H2O, tomato late blight
[3] = test compound Concn. 0.05 μg/mL
[4] = copper-plus medium (CuCl2 10 μM), test compound Concn. 0.05 μg/mL
[5] = hydrazone 50 ppm + 50 μM CuCl2.2H2O, tomato
[6] = compound 0.05 μg/mL, copper-plus medium (CuCl2.2H2O)

SMILES	TLB % Control (Phytophthora infestans; [2]) [%]	melting point [°C]	inhibition of growth at 0.05 µg/mL [1, 3] [%]	LEPTNO % Inhn. Plus Copper Observed [1, 4] [%]	TLB % Control (Phytophthora infestans; [5]) [%]	inhibition of growth at 0.05 µg/mL ([1]; compound 0.05 μg/mL) [%]	LEPTNO % Inhn. Plus Copper Observed [1, 6] [%]
O=C(N/N=C/c1cccc(C(F)(F)F)c1O)c1cccc([N+](=O)[O-])c1 [Example 349]	97.0	215 to 217	17.4	96.9	–	–	–
Cc1cc(C)cc(C(=O)N/N=C/c2cc(Cl)ccc2O)c1 [Example 134]	–	196 to 199	–	–	57.0	4.2	95.3
C/C(=N\NC(=O)c1ccc(Cl)cc1)c1cc(Cl)ccc1O [Example 510]	56.0	248 to 252	6.2	95.5	–	–	–
O=C(N/N=C/c1c(O)cc(C(F)(F)F)cc1C(F)(F)F)c1ccccc1 [Example 276]	–	144 to 193	–	–	71.2	5.5	97.8
Cc1ccc(C(=O)N/N=C/c2cc(Cl)ccc2O)c(O)c1 [Example 446]	57.0	282 to 286	23.5	95.4	–	–	–
C/C(=N\NC(=O)c1ccccc1C)c1ccc(Cl)cc1O [Example 252]	–	214 to 215	–	–	28.0	7.8	98.4
Cc1cc(C)cc(C(=O)N/N=C/c2cc(Br)cc(Br)c2O)c1 [Example 110]	–	209 to 211	–	–	76.4	19.9	98.2
C/C(=N\NC(=O)c1ccc(Br)cc1)c1cc(C(F)(F)F)ccc1O [Example 535]	56.0	256 to 259	10.1	97.7	–	–	–
O=C(N/N=C/c1cccc(C(F)(F)F)c1O)c1ccccc1 [Example 296]	84.7	170 to 173	8.3	97.7	–	–	–
COc1cccc(C(=O)N/N=C/c2cc(Br)cc(Br)c2O)c1C [Example 108]	–	188 to 189	–	–	50.9	21.3	97.6
O=C(N/N=C/c1ccc(Cl)c(Cl)c1O)c1cccc(Cl)c1 [Example 358]	100.0	219 to 222	12.7	98.3	–	–	–
COc1ccc(/C(C)=N/NC(=O)c2ccc(C(F)(F)F)cc2)c(O)c1OC [Example 560]	65.0	229 to 233	1.3	90.7	–	–	–
COc1ccc(/C(C)=N/NC(=O)c2ccc(C(F)(F)F)cc2)c(O)c1 [Example 472]	49.0	251 to 252	0	97.7	–	–	–
O=C(N/N=C/c1cc(Br)ccc1O)c1cc(Cl)ccc1Cl [Example 186]	–	196 to 202	–	–	61.8	0	97.6
C/C(=N\NC(=O)c1ccccc1)c1cc(Br)ccc1O [Example 287]	–	204 to 208	–	–	65.0	0	98.3
Cc1cccc(C(=O)N/N=C/c2cccc(C(F)(F)F)c2O)c1 [Example 343]	97.0	188 to 190	2.8	95.4	–	–	–
C/C(=N\NC(=O)c1cccc(Cl)c1)c1cccc(Cl)c1O [Example 497]	75.0	197 to 219	0	98.1	–	–	–
O=C(N/N=C/c1cc(C(F)(F)F)cc(C(F)(F)F)c1O)c1cccc([N+](=O)[O-])c1 [Example 338]	96.0	256 to 258	9	98.1	–	–	–
O=C(N/N=C/c1cc(Cl)ccc1O)c1ccccc1C(F)(F)F [Example 422]	90.0	154 to 164	0	95.5	–	–	–
O=C(N/N=C/c1cccc(Cl)c1O)c1ccc([N+](=O)[O-])cc1 [Example 430]	100.0	284 to 287	16.6	98.2	–	–	–
O=C(N/N=C/c1cc(C(F)(F)F)ccc1O)c1ccc(F)cc1 [Example 438]	98.0	229 to 231	0	94.2	–	–	–
O=C(N/N=C/c1cc(Cl)ccc1O)c1cccc([N+](=O)[O-])c1 [Example 10]	–	224 to 227	–	–	96.0	6.9	97.2

SMILES	TLB % Control (Phytophthora infestans; [2]) [%]	melting point [°C]	inhibition of growth at 0.05 µg/mL [1, 3] [%]	LEPTNO % Inhn. Plus Copper Observed [1, 4] [%]	TLB % Control (Phytophthora infestans; [5]) [%]	inhibition of growth at 0.05 µg/mL ([1]; compound 0.05 μg/mL) [%]	LEPTNO % Inhn. Plus Copper Observed [1, 6] [%]
COc1ccc(/C(C)=N/NC(=O)c2ccccc2)c(O)c1OC [Example 551]	90.0	154 to 155	1.7	96.0	–	–	–
O=C(N/N=C/c1cccc(Cl)c1O)c1cccc(F)c1 [Example 425]	95.0	178 to 184	17.5	97.6	–	–	–
CSc1cc(Br)c(O)c(/C=N/NC(=O)c2ccccc2)c1 [Example 298]	74.6	207 to 209	0.7	95.0	–	–	–
O=C(N/N=C/c1cc(C(F)(F)F)cc(C(F)(F)F)c1O)c1cccc(Cl)c1 [Example 336]	98.0	230 to 233	16.6	97.8	–	–	–
C/C(=N\NC(=O)c1ccccc1O)c1cc(C(F)(F)F)ccc1O (as salt: Na) [Example 538]	–	277 to 297	–	–	–	–	–
COc1ccc(/C(C)=N/NC(=O)c2ccccc2O)c(O)c1OC [Example 562]	91.0	279 to 297	1.4	97.3	–	–	–
COc1ccc(/C(C)=N/NC(=O)c2ccc(Br)cc2)c(O)c1 [Example 483]	63.0	239 to 241	0	97.9	–	–	–
Cc1ccc(C)c(C(=O)N/N=C/c2cc(Cl)cc(Cl)c2O)c1 [Example 23]	–	169 to 172	–	–	53.3	–	–
Cc1ccc(C(=O)N/N=C/c2ccc(Cl)cc2O)c(O)c1 [Example 397]	6.7	283 to 287	–	–	–	–	–
C/C(=N\NC(=O)c1ccc(C)cc1C)c1ccccc1O [Example 29]	–	–	–	–	50.8	0	98.0
COc1cc(Br)cc(/C=N/NC(=O)c2cccc(Cl)c2)c1O [Example 203]	–	–	–	–	56.4	6.9	95.7
O=C(N/N=C/c1cc(Br)ccc1O)c1ccccc1Cl [Example 170]	–	–	–	–	65.5	0	94.5
COc1cccc(C(=O)N/N=C/c2cc(Br)ccc2O)c1 [Example 185]	–	–	–	–	54.6	0	95.2
O=C(N/N=C/c1cc(Br)cc(Br)c1O)c1ccc(Cl)cc1 [Example 120]	–	–	–	–	92.6	19.9	98.2
Cc1ccc([N+](=O)[O-])c(C(=O)N/N=C/c2cc(Cl)cc(Cl)c2O)c1 [Example 9]	–	–	–	–	67.3	0	93.6
COc1ccccc1C(=O)N/N=C/c1cc(Cl)cc(Cl)c1O [Example 94]	–	–	–	–	37.0	0	92.9
O=C(N/N=C/c1cc(Cl)cc(Cl)c1O)c1cccc(Br)c1 [Example 71]	–	–	–	–	78.0	2.6	91.2
C/C(=N\NC(=O)c1ccc(F)cc1)c1ccccc1O [Example 62]	–	–	–	–	56.1	0	96.3
O=C(N/N=C/c1cc([N+](=O)[O-])ccc1O)c1ccc(Cl)cc1 [Example 197]	–	–	–	–	43.7	0	97.1
CCOc1ccc(C(=O)N/N=C(\C)c2ccccc2O)cc1 [Example 18]	–	–	–	–	38.6	0	96.9
COc1cc(O)c(/C(C)=N/NC(=O)c2ccccc2)c(OC)c1 [Example 526]	41.0	–	1.8	16.2	–	–	–
COc1cc(Br)cc(/C=N/NC(=O)c2ccc(C)cc2)c1O [Example 206]	–	–	–	–	80.7	16.4	98.4
